Laboratory results: patent US20060183888A1 (priority 2004, published 2006)

How the values were obtained:
NMR H/D exchange studies = assay type: physicochemical
Protocol: Compound 7 (˜4 mg, ˜10 μmol) was dissolved in CD3OD (0.75 mL), and D2O (2 drops) was added. The reaction mixture was kept at rt and monitored by NMR (400 MHz). […] NaOD (30% w/w in D2O, 2 drops) was then added, and the solution monitored by NMR. […] After 25 h, the C5 proton peak completely disappeared.
To rule out the possibility that the loss of the C5 proton peak was due to decomposition, the resulting mixture was evaporated at rt under reduce pressure, and the residue was redissolved in CH3OH and allowed to stir for 1 day. The mixture was then evaporated to dryness in vacuo, and redissolved in CD3OD. The NMR spectrum was quickly taken, and the C5 proton peak was again observed. As before, the C5 proton peak slowly disappeared over a 1-day period.
To evaluate the importance of the imine bond on the acidity of the C5 proton, proline was dissolved in 0.75 mL CD3OD and 0.20 mL D2O and treated with […].

PylS-His6 [1] = molecular target: T1, PylS-His6 (Methanosarcina barkeri, UniProt Q6WRH6)
T1 sequence (Q6WRH6 whole entry): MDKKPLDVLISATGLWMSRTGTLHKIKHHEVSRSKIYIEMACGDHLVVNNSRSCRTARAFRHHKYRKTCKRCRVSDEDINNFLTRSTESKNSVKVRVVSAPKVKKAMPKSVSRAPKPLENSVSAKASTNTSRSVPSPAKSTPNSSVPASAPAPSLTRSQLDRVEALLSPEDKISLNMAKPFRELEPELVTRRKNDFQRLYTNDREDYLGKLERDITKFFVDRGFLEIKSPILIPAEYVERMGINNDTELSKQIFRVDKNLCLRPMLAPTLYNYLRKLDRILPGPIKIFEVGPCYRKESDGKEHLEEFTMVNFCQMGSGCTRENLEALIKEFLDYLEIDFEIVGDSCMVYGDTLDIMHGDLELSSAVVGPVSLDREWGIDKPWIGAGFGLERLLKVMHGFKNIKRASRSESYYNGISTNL
Protocol: The pyrophosphate exchange reaction was essentially performed following the method of Cole and Schimmel. All reactions were performed in duplicate at 37° C. The 100 to 200 μl reactions contained (unless noted) 0.3 to […] PylSHis6. […] The specific activity of the radiolabel was adjusted from 4 to 10 dpm/pmol). The concentration of protein was 0.3 to 1 μM. At specific times, 25 μl aliquots were removed and quenched in 500 μl of a stop solution containing 1.6% (w/v) activated acid-washed charcoal (Sigma Chemical Co., St. Louis, Mo.), 80 mM sodium tetrapyrophosphate, and 3.5% (v/v) perchloric acid. Samples were filtered through Whatman GF/C glass-fiber filters and then the filter was washed three times with 5 ml of 40 mM sodium tetrasodium pyrophosphate solution containing 1.7% perchloric acid (v/v) and once with 5 ml 100% ethanol. Filters were dried at 80° C. for 5 minutes then placed in 20 ml scintillation vials containing 10 ml of Ultima Gold F scintillation cocktail (PerkinElmer), shaken once, and counted in a liquid scintillation analyzer. Identical reactions without amino acid, ATP, or enzyme were also set up as negative controls in duplicate. […] One substrate was kept constant at a concentration higher than its respective apparent Km value.

[2] = Stability studies to NaOH, LiOH, TFA (TLC); assay type: physicochemical
Protocol: Stability Studies of Compound (8) to NaOH. NaOH (6 M, 20 μL, 0.12 mmol) was added to a solution of compound 8 (0.15 M, 100 μL, 0.015 mmol). The resulting mixture was allowed to react at rt over 3 days, during which the degradation of compound 8 was monitored by a ninhydrin TLC assay (CHCl3—MeOH—NH4OH(aq)=2:2:1).
Stability Studies of Compound (8) to LiOH. Compound 8 (21.9 mg, 84 μmol) was dissolved in water (2 mL) and LiOH-H2O (84.5 mg, 2.0 mmol) was added. This mixture was allowed to react at rt. […] After 5 days, the solution was evaporated to dryness at rt, redissolved in MeOH (0.5 mL), and purified on chromatography silica gel.
Stability Studies of Compound (8) to TFA. Compound 8 (21.7 mg, 0.083 mmol) was dissolved in MeOH (2 mL) and TFA (200 μL) was added. […] The mixture was allowed to react to completion for 2 days at rt. The resulting mixture was evaporated to dryness, dissolved in MeOH (0.5 mL), and subjected to chromatography on silica gel.

[3] = test system: E. coli BL21 (DE3) expressing pylT, pylS and mtmB1; experiment: Pyrrolysine-dependent amber suppression (mtmB1 UAG readthrough, anti-MtmB immunoblot); assay type: cell-based; details: 1 mM in the medium, induced 4 h
Protocol: To test for amber suppression, overnight cultures were grown in Luria-Bertani broth (3 ml) with 100 μg ml^−1 ampicillin. Subsequently, 200 μl was inoculated into 1 ml fresh medium and grown to a D600 of 0.6. […] The mtmB1 gene products in equivalent amounts of lysates were then analysed by immunoblotting of a SDS 12.5% polyacrylamide gel with affinity-purified rabbit anti-MtmB antibody^6. The Rainbow Molecular Weight markers (Amersham Biosciences) were used.
To test for amber suppression, overnight cultures of a strain bearing one of the plasmids were grown in LB broth (3 mL) with 100 ug/ml final ampicillin. Subsequently, 200 μl of each culture was inoculated into 1 ml of fresh LB medium with ampicillin, and grown to an A600 of approximately 0.6. […] The cultures were then centrifuged for 1 minute 16,000×g, and the cell pellets lysed in 125 mM Tris HCl, 4.6% SDS, 20% glycerol and 10% (v/v) β-mercaptoethanol, pH 6.8, at 90 degrees for 10 minutes.
Extracts were electrophoresed in a 12.5% SDS-PAGE gel, then electroblotted overnight at 150 mA onto PVDF membrane (Bio-Rad Labs, Hercules, Calif.). The membrane was then incubated for 1 hour at room temperature with Western Breeze blocking solution (Invitrogen). […]

His6-PylS = molecular target: T2, His6-PylS (Methanosarcina barkeri, UniProt Q6WRH6); experiment: Gel-shift aminoacylation assay with N-terminally His-tagged PylS; assay type: biochemical
T2 construct: His6 (hexahistidine) (N); made in house
T2 sequence (Q6WRH6 whole entry): as above
Protocol: (§1) The reaction was terminated after 5-30 min at 37° C. with an equal volume of 0.3 M sodium acetate, 8 M urea pH 5.0. Charged and uncharged tRNA were separated by acid-urea acrylamide gel electrophoresis, blotted to nitrocellulose and probed with a 5μ ^32P-end-labelled, 72-base oligonucleotide complementary to tRNACUA. Radioactivity was analysed with a STORM Phosphorimager (Amersham Biosciences).
Aminoacylation assay in acid-urea gels. […] Following incubation at 37° C. for 5 to 30 minutes, the reaction was terminated by addition of an equal volume of 2× loading dye (0.3 M sodium acetate, 8 M urea, pH 5.0) and charged and uncharged tRNA species analysed by acid-urea acrylamide gel electrophoresis following the methods outlined in Jester et al. Samples were electrophoresed in 14% polyacrylamide gels buffered with a 0.3 M sodium acetate-7 M urea solution, pH 5.0, at 50 volts and 4° C. for 24 hours. The same buffer without urea was used in the electrode chambers, and was replaced with fresh buffer every 6-8 hours. Finished gels were transblotted for 2 hours at 40 volts in 4° C. in a blotting solution of 10 mM Tris-acetate, 5 mM sodium acetate, and 0.5 mM EDTA, pH 8.0. […] Radioactivity on the blot was imaged and analyzed using a STORM Phosphorimager (Amersham Biosciences).

PylS-His6 [4] = molecular target: T1, PylS-His6; experiment: Aminoacylation of tRNACUA, acid-urea gel shift and northern blot; assay type: biochemical; design: made in house; host or cells: E. coli BL21 (DE3)
Protocol: as §1
Aminoacylation assay in acid-urea gels. […] Following incubation at 37° C. for 5 to 30 minutes, the reaction was terminated by addition of an equal volume of 2× loading dye (0.3 M sodium acetate, 8 M urea, pH 5.0) and charged and uncharged tRNA species analysed by acid-urea acrylamide gel electrophoresis following the methods outlined in Jester et al. Samples were electrophoresed in 14% polyacrylamide gels buffered with a 0.3 M sodium acetate-7 M urea solution, pH 5.0, at 50 volts and 4° C. for 24 hours. The same buffer without urea was used in the electrode chambers, and was replaced with fresh buffer every 6-8 hours. Finished gels were transblotted for 2 hours at 40 volts in 4° C. in a blotting solution of 10 mM Tris-acetate, 5 mM sodium acetate, and 0.5 mM EDTA, pH 8.0. The blot was then cross-linked by ultraviolet radiation (15000 μJ/cm2 per side) then prehybrized in 0.25 M sodium phosphate buffer, pH 7.2, and 5.7% SDS for at least 30 minutes. In order to detect charged and uncharged tRNACUA a 72 base oligonucleotide complementary to full length of tRNACUA was labeled with γ-^32P ATP and polynucleotide kinase. The probe was hybridized with the blot overnight at room temperature, then agitated at 22° C. for 5 minute in 10 mM sodium citrate, 150 mM NaCl, 1% SDS, pH 7.0, then agitated with two changes of 5 mM sodium citrate, 75 mM sodium chloride, 1% SDS, pH 7.0, for 5 minutes each. Radioactivity on the blot was imaged and analyzed using a STORM Phosphorimager (Amersham Biosciences).

[5] = test system: E. coli BW25141(DE3) with pylT, pylS and UAG-mutant uidA; assay type: cell-based
Description: In order to avoid interference by the residue uidA gene, we employed a strain with most ofuidA deleted, E. coli BW25141(DE3). This strain was transformed with pDLGUS, a variant of the pEC03 plasmid in which the mtmB1 gene was removed and the uidA gene introduced in its place.

COC(=O)[C@H](CCCCNC(=O)[C@@H]1N=CC[C@H]1C)NC(=O)C(F)(F)F [Compound 7, Nα-Trifluoroacetyl-L-pyrrolysine methyl ester]
change in NMR (NMR H/D exchange studies; CD3OD with D2O, rt, 3-day period): No change was observed
time to complete disappearance of the C5 proton peak (H/D exchange) (NMR H/D exchange studies; NaOD added, CD3OD/D2O): 25 h

Nc1ncnc2c1ncn2[C@@H]1O[C@H](COP(=O)(O)OP(=O)(O)OP(=O)(O)O)[C@@H](O)[C@H]1O [ATP]
Km (PylS-His6 [1]; read-out: apparent Km, 37° C., pH 7.2): 2 µM

C[C@@H]1CC=N[C@H]1C(=O)NCCCC[C@H](N)C(=O)[O-].[Li+] [Compound 8, L-Pyrrolysine lithium salt]
degradation by LiOH (TLC) ([2]; LiOH in water, rt, after 24 h): two new bands
degradation by NaOH (ninhydrin TLC) ([2]; NaOH, rt, over 3 days): One new band
degradation by TFA (TLC) ([2]; TFA in MeOH, after 1 h, complete in 2 days at rt): one new band

NCCCC[C@H](N)C(=O)O [lysine, reference compound]
UAG readthrough of mtmB1 (50-kDa MtmB) [3]: could not be replaced
tRNA synthetase activity (His6-PylS): no lysyl-tRNA synthetase activity was detectable
isotopic exchange into ATP above background (PylS-His6 [1]; 1 mM, up to 30 min): no detectable isotopic exchange
aminoacylation of tRNAIYS in the M. acetivorans tRNA pool (PylS-His6 [4]): does not aminoacylate
formation of charged tRNACUA species (PylS-His6 [4]; amino acids at 50 μM, cellular tRNA pool): not formed

O=C(O)[C@@H]1CCCN1 [proline, reference compound]
H/D exchange of protons on ring carbons (NMR H/D exchange studies; CD3OD/D2O with base, rt, 1 day): No evidence for H/D exchange

C[C@@H]1CC=N[C@H]1C(=O)NCCCC[C@H](N)C(=O)O [pyrrolysine, L-pyrrolysine]
UAG readthrough of mtmB1 (50-kDa MtmB) [3]: large amounts of 50-kDa MtmB
conversion under acidic conditions ([2]; acidic conditions): converted to its enamine form
increase of beta-glucuronidase activity ([5]; 1 mM synthetic pyrrolysine versus absence of pyrrolysine): approximately 100 fold
beta-glucuronidase activity ([5]; induced with IPTG, 1 mM synthetic pyrrolysine): 4. umol/min·mg protein
tRNA synthetase activity (His6-PylS): does have pyrrolysyl-tRNA synthetase activity
apparent Vmax (PylS-His6 [1]; exchange reaction): 120 nmol min^−1 per mg PylS
aminoacylation of tRNAIYS in the M. acetivorans tRNA pool (PylS-His6 [4]): does not aminoacylate
maximal conversion of deacylated tRNACUA to charged species (PylS-His6 [4]; deacylated M. acetivorans cellular tRNA pool, with ATP and PylS-His6): 50%
maximum of tRNACUA transcribed in vitro aminoacylated (PylS-His6 [4]; in vitro transcribed tRNACUA): 43%
